Patent US11427549B2, “Pyrimidinyloxy benzo-fused compounds as herbicides” (FMC Corporation, priority 2017, dated 2022)

Columns and labels:
[1] = system: ryegrass, Italian (Italian ryegrass, Lolium multiflorum); experiment: Test A postemergence, ryegrass, Italian; assay type: in vivo; details: Lolium multiflorum, post-emergence, 240 h, 0 to 100 scale (0 no effect, 100 complete control), read-out: Plant response rating, Ryegrass, Italian; for pest or weed control at 31 g/ha: 31 g ai/ha; for pest or weed control at 125 g/ha: 125 g ai/ha
From the text: (§1) Seeds of plant species selected from barnyardgrass (Echinochloa crus-galli), kochia (Kochia scoparia), ragweed (common ragweed, Ambrosia elatior), ryegrass, Italian (Italian ryegrass, Lolium multiflorum), foxtail, giant (giant foxtail, Setaria faberii), foxtail, green (green foxtail, Setaria viridis) and pigweed (Amaranthus retroflexus) were planted into a blend of loam soil and sand and treated preemergence with a directed soil spray using test chemicals formulated in a non-phytotoxic solvent mixture which included a surfactant.
(§2) At the same time, plants selected from these weed species and also wheat (Triticum aestivum), corn (Zea mays), blackgrass (Alopecurus myosuroides), and galium (catchweed bedstraw, Galium aparine) were planted in pots containing the same blend of loam soil and sand and treated with postemergence applications of test chemicals formulated in the same manner. Plants ranged in height from 2 to 10 cm and were in the one- to two-leaf stage for the postemergence treatment. Treated plants and untreated controls were maintained in a greenhouse for approximately 10 days, after which time all treated plants were compared to untreated controls and visually evaluated for injury. […] A dash (-) response means no test result.

[2] = system: barnyardgrass (Echinochloa crus-galli); experiment: Test A preemergence, barnyardgrass; assay type: in vivo; details: Echinochloa crus-galli, pre-emergence, 240 h, 0 to 100 scale (0 no effect, 100 complete control), read-out: Plant response rating, Barnyardgrass; for pest or weed control at 31 g/ha: 31 g ai/ha; for pest or weed control at 125 g/ha: 125 g ai/ha
From the text: as §1, §2

[3] = system: ducksalad (Heteranthera limosa); experiment: Test B flooded paddy test, ducksalad; details: Heteranthera limosa, read-out: Plant response rating, Ducksalad (0 to 100 scale, 0 is no effect, 100 is complete control)
kochia (Kochia scoparia) [4] = experiment: Test A preemergence, kochia; assay type: in vivo; details: Bassia scoparia, pre-emergence, 240 h, 0 to 100 scale (0 no effect, 100 complete control), read-out: Plant response rating, Kochia; for pest or weed control at 31 g/ha: 31 g ai/ha; for pest or weed control at 125 g/ha: 125 g ai/ha
From the text: as §1, §2

[5] = system: barnyardgrass (Echinochloa crus-galli); experiment: Test A postemergence, barnyardgrass; assay type: in vivo; details: Echinochloa crus-galli, post-emergence, 240 h, 0 to 100 scale (0 no effect, 100 complete control), read-out: Plant response rating, Barnyardgrass; for pest or weed control at 31 g/ha: 31 g ai/ha; for pest or weed control at 125 g/ha: 125 g ai/ha
From the text: as §1, §2

[6] = system: ryegrass, Italian (Italian ryegrass, Lolium multiflorum); experiment: Test A preemergence, ryegrass, Italian; assay type: in vivo; details: Lolium multiflorum, pre-emergence, 240 h, 0 to 100 scale (0 no effect, 100 complete control), read-out: Plant response rating, Ryegrass, Italian; for pest or weed control at 31 g/ha: 31 g ai/ha; for pest or weed control at 125 g/ha: 125 g ai/ha
From the text: as §1, §2

[7] = system: blackgrass (Alopecurus myosuroides); experiment: Test A postemergence, blackgrass; assay type: in vivo; details: Alopecurus myosuroides, post-emergence, 240 h, 0 to 100 scale (0 no effect, 100 complete control), read-out: Plant response rating, Blackgrass; for pest or weed control at 31 g/ha: 31 g ai/ha; for pest or weed control at 125 g/ha: 125 g ai/ha
From the text: as §1, §2

[8] = system: barnyardgrass (Echinochloa crus-galli); experiment: Test B flooded paddy test, barnyardgrass; details: Echinochloa crus-galli, read-out: Plant response rating, Barnyardgrass (0 to 100 scale, 0 is no effect, 100 is complete control)
[9] = system: ragweed (common ragweed, Ambrosia elatior); experiment: Test A postemergence, ragweed; assay type: in vivo; details: Ambrosia artemisiifolia, post-emergence, 240 h, 0 to 100 scale (0 no effect, 100 complete control), read-out: Plant response rating, Ragweed; for pest or weed control at 31 g/ha: 31 g ai/ha; for pest or weed control at 125 g/ha: 125 g ai/ha
From the text: as §1, §2

[10] = system: ragweed (common ragweed, Ambrosia elatior); experiment: Test A preemergence, ragweed; assay type: in vivo; details: Ambrosia artemisiifolia, pre-emergence, 240 h, 0 to 100 scale (0 no effect, 100 complete control), read-out: Plant response rating, Ragweed; for pest or weed control at 31 g/ha: 31 g ai/ha; for pest or weed control at 125 g/ha: 125 g ai/ha
From the text: as §1, §2

corn (Zea mays) = experiment: Test A postemergence, corn; assay type: in vivo; details: Zea mays, post-emergence, 240 h, 0 to 100 scale (0 no effect, 100 complete control); for Corn plant response rating (crop injury, 0 = no effect, 100 = complete kill) at 31 g/ha: 31 g ai/ha; for Corn plant response rating (crop injury, 0 = no effect, 100 = complete kill) at 125 g/ha: 125 g ai/ha
From the text: as §1, §2

[11] = system: wheat (Triticum aestivum); experiment: Test A postemergence, wheat; assay type: in vivo; details: Triticum aestivum, post-emergence, 240 h, 0 to 100 scale (0 no effect, 100 complete control), read-out: Plant response rating, Wheat; for plant injury at 31 g/ha: 31 g ai/ha; for plant injury at 125 g/ha: 125 g ai/ha
From the text: as §1, §2

[12] = system: galium (catchweed bedstraw, Galium aparine); experiment: Test A postemergence, galium; assay type: in vivo; details: Galium, post-emergence, 240 h, 0 to 100 scale (0 no effect, 100 complete control), read-out: Plant response rating, Galium; for pest or weed control at 31 g/ha: 31 g ai/ha; for pest or weed control at 125 g/ha: 125 g ai/ha
From the text: as §1, §2

rice (Oryza sativa) = experiment: Test B flooded paddy test, rice; details: Oryza sativa, read-out: Plant response rating, Rice (0 to 100 scale, 0 is no effect, 100 is complete control)
[13] = system: pigweed (Amaranthus retroflexus); experiment: Test A postemergence, pigweed; assay type: in vivo; details: Amaranthus retroflexus, post-emergence, 240 h, 0 to 100 scale (0 no effect, 100 complete control), read-out: Plant response rating, Pigweed; for pest or weed control at 31 g/ha: 31 g ai/ha; for pest or weed control at 125 g/ha: 125 g ai/ha
From the text: as §1, §2

kochia (Kochia scoparia) [14] = experiment: Test A postemergence, kochia; assay type: in vivo; details: Bassia scoparia, post-emergence, 240 h, 0 to 100 scale (0 no effect, 100 complete control), read-out: Plant response rating, Kochia; for pest or weed control at 31 g/ha: 31 g ai/ha; for pest or weed control at 125 g/ha: 125 g ai/ha
From the text: as §1, §2

[15] = system: pigweed (Amaranthus retroflexus); experiment: Test A preemergence, pigweed; assay type: in vivo; details: Amaranthus retroflexus, pre-emergence, 240 h, 0 to 100 scale (0 no effect, 100 complete control), read-out: Plant response rating, Pigweed; for pest or weed control at 31 g/ha: 31 g ai/ha; for pest or weed control at 125 g/ha: 125 g ai/ha
From the text: as §1, §2

[16] = system: foxtail, giant (giant foxtail, Setaria faberii); experiment: Test A preemergence, foxtail, giant; assay type: in vivo; details: Setaria faberi, pre-emergence, 240 h, 0 to 100 scale (0 no effect, 100 complete control), read-out: Plant response rating, Foxtail, Giant
From the text: as §1, §2

| Structure (SMILES) | pest or weed control at 31 g/ha [1] | pest or weed control at 125 g/ha [1] | pest or weed control at 31 g/ha [2] | pest or weed control at 125 g/ha [2] | pest or weed control at 31 g/ha (kochia (Kochia scoparia) [4]) | pest or weed control at 125 g/ha (kochia (Kochia scoparia) [4]) | pest or weed control at 31 g/ha [5] | pest or weed control at 125 g/ha [5] | pest or weed control at 31 g/ha [6] | pest or weed control at 125 g/ha [6] | pest or weed control at 31 g/ha [7] | pest or weed control at 125 g/ha [7] | pest or weed control at 31 g/ha [9] | pest or weed control at 125 g/ha [9] | pest or weed control at 31 g/ha [10] | pest or weed control at 125 g/ha [10] | Corn plant response rating (crop injury, 0 = no effect, 100 = complete kill) at 31 g/ha (corn (Zea mays)) | Corn plant response rating (crop injury, 0 = no effect, 100 = complete kill) at 125 g/ha (corn (Zea mays)) | plant injury at 31 g/ha [11] | plant injury at 125 g/ha [11] | other results |
| --- | --- | --- | --- | --- | --- | --- | --- | --- | --- | --- | --- | --- | --- | --- | --- | --- | --- | --- | --- | --- | --- |
| FC(F)(F)CCC1OCc2cccc(Oc3ncc(Cl)cn3)c21 (centres unmarked) [Compound 8, 5-Chloro-2-[[1,3-dihydro-3-(3,3,3-trifluoropropyl)-4-isobenzofuranyl]oxy]pyrimidine] | 10% | 50% | 80% | 100% | 20% | 100% | 10% | 50% | 10% | 70% | 30% | 100% | 10% | 20% | 0% | 10% | 10% | 50% | 0% | 50% | pest or weed control at 250 g/ha [3]: 100%; pest or weed control at 250 g/ha [8]: 35%; pest or weed control at 31 g/ha [12]: 30%; pest or weed control at 125 g/ha [12]: 80%; plant injury at 250 g/ha (rice (Oryza sativa)): 20%; pest or weed control at 31 g/ha [13]: 100%; pest or weed control at 125 g/ha [13]: 100%; pest or weed control at 31 g/ha (kochia (Kochia scoparia) [14]): 80%; pest or weed control at 125 g/ha (kochia (Kochia scoparia) [14]): 90%; pest or weed control at 31 g/ha [15]: 100%; pest or weed control at 125 g/ha [15]: 100% |
| O=C1OCc2cccc(Oc3ncc(Cl)cn3)c2C1CCCC(F)(F)F (centres unmarked) [Compound 26, 5-[(5-Chloro-2-pyrimidinyl)oxy]-1,4-dihydro-4-(4,4,4-trifluorobutyl)-3H-2-benzopyran-3-one] | 0% | 0% | 0% | 30% | 0% | 20% | 100% | 100% | 0% | 10% | 0% | 0% | 0% | 10% | 0% | 0% | 10% | 20% | 0% | 0% | pest or weed control at 31 g/ha [12]: 20%; pest or weed control at 125 g/ha [12]: 50%; pest or weed control at 31 g/ha ([16]; 31 g ai/ha): 0%; pest or weed control at 125 g/ha ([16]; 125 g ai/ha): 60%; pest or weed control at 31 g/ha [13]: 30%; pest or weed control at 125 g/ha [13]: 60%; pest or weed control at 31 g/ha (kochia (Kochia scoparia) [14]): 20%; pest or weed control at 125 g/ha (kochia (Kochia scoparia) [14]): 60%; pest or weed control at 31 g/ha [15]: 20%; pest or weed control at 125 g/ha [15]: 100% |
| O=C1CC(CCC(F)(F)F)c2c(Oc3ncc(Cl)cn3)cccc21 (centres unmarked) [Compound 11, 4-[(5-Chloro-2-pyrimidinyl)oxy]-2,3-dihydro-3-(3,3,3-trifluoropropyl)-1H-inden-1-one] | 30% | 40% | 0% | 50% | 0% | 20% | 20% | 30% | 0% | 20% | 0% | 20% | 0% | 10% | 0% | 0% | 0% | 10% | 0% | 10% | pest or weed control at 31 g/ha [12]: 10%; pest or weed control at 125 g/ha [12]: 40%; pest or weed control at 31 g/ha [13]: 40%; pest or weed control at 125 g/ha [13]: 50%; pest or weed control at 31 g/ha (kochia (Kochia scoparia) [14]): 20%; pest or weed control at 125 g/ha (kochia (Kochia scoparia) [14]): 50%; pest or weed control at 31 g/ha [15]: 10%; pest or weed control at 125 g/ha [15]: 100% |
